# In ChEMBL document CHEMBL3045730, “An efficient anticancer histone deacetylase inhibitor and its analogues for human HDAC8” (Med Chem Res, 2012):
# Molecular target: T1, Histone deacetylase 8 (Homo sapiens, UniProt Q9BY41)
# T1 sequence (Q9BY41 whole entry): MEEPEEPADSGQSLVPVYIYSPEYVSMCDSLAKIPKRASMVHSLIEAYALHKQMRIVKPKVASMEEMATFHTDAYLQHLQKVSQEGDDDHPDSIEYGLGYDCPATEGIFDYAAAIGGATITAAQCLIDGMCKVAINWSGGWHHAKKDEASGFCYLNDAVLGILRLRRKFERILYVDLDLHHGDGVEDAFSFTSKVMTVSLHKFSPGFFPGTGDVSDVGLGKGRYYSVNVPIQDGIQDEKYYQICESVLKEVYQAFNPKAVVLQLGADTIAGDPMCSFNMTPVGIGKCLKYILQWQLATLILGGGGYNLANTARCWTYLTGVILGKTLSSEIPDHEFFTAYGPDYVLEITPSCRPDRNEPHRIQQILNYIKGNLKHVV
# Assay: Inhibition of Homo sapiens (human) HDAC8
row,IC50 [nM],SMILES
1,52600,Cn1cc(C=O)cc1CCC(=O)NO
2,460,O=C(/C=C/c1ccc(Cc2ccc(O)c(Cl)c2)cc1)NO
3,9.5,O=C(CCCCCCCC(=O)c1ccc(N2CCCCC2)cc1)NO
4,45,O=C(CCCCCCCC(=O)c1ccc(C(F)(F)F)cc1)NO
5,450,COc1ccc(C(=O)CCCCCCC(=O)NO)cc1
6,153,O=C(CCCCCCCC(=O)c1cccnc1)NO
7,> 100000,Cc1ccc(NC(=O)c2ccc(CNC(=O)OCc3cccnc3)cc2)c(N)c1
8,600,CC(CCCCCC(=O)c1ccc2ccccc2c1)C(=O)NOCCCCC(=O)NO (stereo unspecified)
9,95,COc1ccccc1C(=O)CCCCCCCC(=O)NO
10,> 100000,O=C(NCc1ccc(C(=O)Nc2ccccc2)cc1)OCc1cccnc1
11,900,O=C(Cc1ccc(NS(=O)(=O)c2ccccc2)cc1)NO
12,12300,Cn1cc(C=O)cc1/C=C/C(=O)NO
13,9650,Cn1cc(C(=O)Cl)cc1/C=C/C(=O)NO
14,25,O=C(CCCCCCCCc1ccc2ccccc2c1)NO
15,35,O=C(CCCCCCC(=O)c1ccc2ccccc2c1)NO
16,6000,Nc1ccc(F)cc1NC(=O)c1ccc(CNC(=O)OCc2cccnc2)cc1
17,2,O=C(CCCCCCCC(=O)c1ccc(-c2ccc(Br)cc2)cc1)NO
18,8,C=C(CCCCCCCC(=O)NO)c1ccc2ccccc2c1
19,11300,CC(=O)c1cc(/C=C/C(=O)NO)n(C)c1

row,IC50 [nM],SMILES
1,4600,COc1ccc(N)c(NC(=O)c2ccc(CNC(=O)OCc3cccnc3)cc2)c1
2,> 100000,Cc1cccc(NC(=O)c2ccc(CNC(=O)OCc3cccnc3)cc2)c1N
3,300,Cc1ccc(S(=O)(=O)Nc2ccc(/C=C/C(=O)NO)cc2)cc1
4,4.5,O=C(CCCCCCCC(=O)c1ccc(N2CCN(c3ccccc3)CC2)cc1)NO
5,60,COc1ccc(CS(=O)(=O)Nc2ccc(/C=C\C(=O)NO)cc2)cc1
6,> 5000,O=C(/C=C/C=C/c1ccc(-c2ccccc2)cc1)NO
7,135,O=C(CCCCCCCCC(=O)c1ccccc1)NO
8,2200,O=C(NCc1ccc(C(=O)Nc2ccccc2O)cc1)OCc1cccnc1
9,44000,COc1ccc(NC(=O)c2ccc(CNC(=O)OCc3cccnc3)cc2)c(N)c1
10,300,O=C(/C=C/c1ccc(NS(=O)(=O)c2ccc(Cl)cc2Cl)cc1)NO
11,1700,O=C(CCc1ccc(-c2ccc(O)cc2)cc1)NO
12,4,O=C(CCCCCCC/C(=N\O)c1ccc(-c2ccccc2)cc1)NO
13,1500,O=C(CCCCCC(=O)c1ccccc1)NO
14,7700,Nc1ccc(Cl)cc1NC(=O)c1ccc(CNC(=O)OCc2cccnc2)cc1
15,90,COc1ccc(CS(=O)(=O)Nc2ccc(/C=C\C(=O)NO)cc2)cc1OC
16,100,CC(C)(C)c1ccc(CS(=O)(=O)Nc2ccc(/C=C\C(=O)NO)cc2)cc1
17,> 100000,Nc1ccc(NC(=O)c2ccc(CNC(=O)OCc3cccnc3)cc2)cc1
18,600,CC(C)c1cc(C(C)C)c(C(C)C)cc1CS(=O)(=O)Nc1ccc(/C=C\C(=O)NO)cc1
19,5,O=C(CCCCCCCC(=O)c1ccc(-c2ccccc2)cc1)NO

row,IC50 [nM],SMILES
1,45,O=C(CCCCCCCC(=O)c1ccc(Br)cc1)NO
2,40000,Nc1cc(Cl)ccc1NC(=O)c1ccc(CNC(=O)OCc2cccnc2)cc1
3,320,O=C(/C=C/c1cccc(-c2ccc(O)cc2)c1)NO
4,100,O=C(CCc1ccc(NS(=O)(=O)c2ccccc2)cc1)NO
5,71.4,O=C(CCCCCCCN1C(=O)c2ccccc2C1=O)NO
6,35,O=C(CCCCCCCC(O)c1ccc2ccccc2c1)NO (stereo unspecified)
7,> 100000,CC(=O)Nc1ccccc1NC(=O)c1ccc(CNC(=O)OCc2cccnc2)cc1
8,20,O=C(/C=C/c1ccc(Cc2ccc(CO)cc2)cc1)NO
9,1000,O=C(NO)c1ccc(CCCc2ccccc2)cc1
10,2000,C/C(=C\Cc1ccc(NS(=O)(=O)c2ccccc2)cc1)CC(=O)NO
11,> 100000,Nc1cccc(NC(=O)c2ccc(CNC(=O)OCc3cccnc3)cc2)c1
12,15,COc1ccc(C(=O)CCCCCCCC(=O)NO)cc1
13,2800,Cc1ccc(N)c(NC(=O)c2ccc(CNC(=O)OCc3cccnc3)cc2)c1
14,8.5,O=C(CCCCCCC/C(=N\O)c1ccc2ccccc2c1)NO
15,65,O=C(CCCCCCCC(=O)c1ccccc1)NO
16,100,O=C(/C=C/c1ccc(NS(=O)(=O)c2ccc(Cl)c(Cl)c2)cc1)NO
17,6,O=C(CCCCCC/C=C/c1ccc2ccccc2c1)NO
18,500,O=C(CCCCCCC(=O)c1ccccc1)NO
